Experimental data published in ChEMBL document CHEMBL1201862, “PubChem BioAssay data set” (2004).
Activity calls are given as the source filed them. Cut-off read from the data, not from the text of the source, for most assays here: actives have a measured EC50 and inactives only a lower limit.

Key:
[1] = molecular target: T1, Heat shock factor protein 1 (Mus musculus, UniProt P38532); experiment: decrease of HSF1-responsive luciferase luminescence – cell-based, NIH3T3, dose retest, confirmation (AID 2382); assay type: functional;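 note: NIH3T3 fibroblasts with HSF1-driven luciferase reporter stressed by proteasome inhibitor MG132; luminescence from HSF1-driven luciferase expression after 8 hours of MG132 stress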
T1 sequence (P38532 whole entry): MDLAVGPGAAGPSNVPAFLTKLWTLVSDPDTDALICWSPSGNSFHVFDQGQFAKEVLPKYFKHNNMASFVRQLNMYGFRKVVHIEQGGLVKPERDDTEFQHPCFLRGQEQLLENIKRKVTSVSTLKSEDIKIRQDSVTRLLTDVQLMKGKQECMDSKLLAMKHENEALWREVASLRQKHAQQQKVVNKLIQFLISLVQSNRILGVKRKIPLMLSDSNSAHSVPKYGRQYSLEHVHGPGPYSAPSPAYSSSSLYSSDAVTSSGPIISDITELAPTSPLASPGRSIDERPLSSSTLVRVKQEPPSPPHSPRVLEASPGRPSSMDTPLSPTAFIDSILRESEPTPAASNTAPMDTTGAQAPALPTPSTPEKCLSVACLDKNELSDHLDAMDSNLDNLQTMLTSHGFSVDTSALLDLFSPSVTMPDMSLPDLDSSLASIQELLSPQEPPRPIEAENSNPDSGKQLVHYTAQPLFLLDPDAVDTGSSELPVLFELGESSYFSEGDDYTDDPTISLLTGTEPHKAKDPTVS

[2] = molecular target: T2, Corticotropin-releasing factor receptor 2/Corticotropin-releasing factor-binding protein (Homo sapiens, UniProt P24387+Q13324); experiment: Dose Response confirmation of uHTS hits for small molecule antagonists of the CRF-binding protein and CRF-R2 receptor complex.; assay type: functional; details: read-out: IC50_Mean
T2 sequence (Q13324 whole entry): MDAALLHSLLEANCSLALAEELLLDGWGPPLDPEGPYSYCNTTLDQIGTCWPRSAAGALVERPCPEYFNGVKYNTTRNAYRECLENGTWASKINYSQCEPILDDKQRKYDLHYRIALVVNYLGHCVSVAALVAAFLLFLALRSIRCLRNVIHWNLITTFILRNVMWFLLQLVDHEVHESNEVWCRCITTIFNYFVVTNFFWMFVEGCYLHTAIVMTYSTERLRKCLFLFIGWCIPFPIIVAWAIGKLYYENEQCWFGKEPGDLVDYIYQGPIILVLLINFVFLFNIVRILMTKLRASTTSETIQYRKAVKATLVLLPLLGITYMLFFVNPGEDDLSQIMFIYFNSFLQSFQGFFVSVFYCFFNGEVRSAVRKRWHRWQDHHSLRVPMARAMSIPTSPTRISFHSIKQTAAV
T2 sequence (P24387 whole entry): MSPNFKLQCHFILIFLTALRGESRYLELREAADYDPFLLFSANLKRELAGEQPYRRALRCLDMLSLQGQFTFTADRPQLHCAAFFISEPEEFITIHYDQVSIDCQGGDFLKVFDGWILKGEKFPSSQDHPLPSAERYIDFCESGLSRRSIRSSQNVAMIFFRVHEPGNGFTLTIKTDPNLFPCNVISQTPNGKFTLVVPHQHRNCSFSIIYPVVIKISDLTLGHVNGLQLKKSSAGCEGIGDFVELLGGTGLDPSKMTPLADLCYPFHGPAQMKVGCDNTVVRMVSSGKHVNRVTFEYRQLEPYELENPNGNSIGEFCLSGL

[3] = molecular target: T2, Corticotropin-releasing factor receptor 2/Corticotropin-releasing factor-binding protein; experiment: activators of CRF receptor 2 with binding protein – uHTS hits, confirmation (AID 602473); assay type: functional; details: read-out: EC50_Mean
[4] = molecular target: T3, Ubiquitin-conjugating enzyme E2 N (Homo sapiens, UniProt P61088); assay type: functional;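 note: Dose-response confirmation in a TR-FRET assay detecting UBC13-driven polyubiquitin chain formation, inhibition measured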
T3 sequence (P61088 whole entry): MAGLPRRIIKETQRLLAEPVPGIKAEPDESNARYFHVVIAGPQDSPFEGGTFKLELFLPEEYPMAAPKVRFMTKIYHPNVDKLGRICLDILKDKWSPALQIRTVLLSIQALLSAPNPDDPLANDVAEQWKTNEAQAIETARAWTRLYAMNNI

Streptokinase A = molecular target: T4, Streptokinase A (Streptococcus pyogenes serotype M1, UniProt P10520); experiment: viability-normalized secreted streptokinase activity reduction – plasminogen activation absorbance, OD405, dose response (AID 1914); assay type: functional, Streptococcus pyogenes M1 GAS;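 note: secreted streptokinase activity via plasminogen activation per viability signal from cell pellet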
T4 sequence (P10520 whole entry): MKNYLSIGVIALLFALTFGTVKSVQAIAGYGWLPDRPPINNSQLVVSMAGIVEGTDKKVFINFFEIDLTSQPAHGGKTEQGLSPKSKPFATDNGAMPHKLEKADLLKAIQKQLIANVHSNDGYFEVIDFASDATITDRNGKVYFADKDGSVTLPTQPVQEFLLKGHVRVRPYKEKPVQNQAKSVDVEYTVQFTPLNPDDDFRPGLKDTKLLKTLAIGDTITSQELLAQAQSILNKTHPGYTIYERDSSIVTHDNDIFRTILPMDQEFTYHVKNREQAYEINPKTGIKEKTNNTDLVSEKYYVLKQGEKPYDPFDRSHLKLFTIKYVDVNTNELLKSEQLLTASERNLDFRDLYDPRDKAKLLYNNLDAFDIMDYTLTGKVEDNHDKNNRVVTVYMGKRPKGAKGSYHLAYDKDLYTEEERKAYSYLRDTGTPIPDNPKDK

[5] = system: Streptococcus sp. 'group A'; experiment: Streptococcus pyogenes SK(-)GAS viability under kanamycin – luminescence, BacTiterGlo, confirmation, counter-screen for streptokinase expression inhibitor project, dose response (AID 1900); assay type: functional, organism-based
[6] = Luminescence Cell-Based Dose Retest to Confirm Inhibitors of Cancer Stem Cells. [Related pubchem assays (depositor defined):AID2717, AID2721]; assay type: functional; details: Homo sapiens
Streptococcus = experiment: GAS UMAA2166 growth inhibition – luminescence, BacTiterGlo, counter-screen for streptokinase expression inhibitor project, dose response (AID 1915); assay type: functional, organism-based;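 note: potency for reduction of bacterial viability or growth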
Cytochrome P450 1A2 = molecular target: T5, Cytochrome P450 1A2 (Homo sapiens, UniProt P05177);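 note: PubChem cytochrome P450 panel assay, CYP1A2 panel member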
T5 sequence (P05177 whole entry): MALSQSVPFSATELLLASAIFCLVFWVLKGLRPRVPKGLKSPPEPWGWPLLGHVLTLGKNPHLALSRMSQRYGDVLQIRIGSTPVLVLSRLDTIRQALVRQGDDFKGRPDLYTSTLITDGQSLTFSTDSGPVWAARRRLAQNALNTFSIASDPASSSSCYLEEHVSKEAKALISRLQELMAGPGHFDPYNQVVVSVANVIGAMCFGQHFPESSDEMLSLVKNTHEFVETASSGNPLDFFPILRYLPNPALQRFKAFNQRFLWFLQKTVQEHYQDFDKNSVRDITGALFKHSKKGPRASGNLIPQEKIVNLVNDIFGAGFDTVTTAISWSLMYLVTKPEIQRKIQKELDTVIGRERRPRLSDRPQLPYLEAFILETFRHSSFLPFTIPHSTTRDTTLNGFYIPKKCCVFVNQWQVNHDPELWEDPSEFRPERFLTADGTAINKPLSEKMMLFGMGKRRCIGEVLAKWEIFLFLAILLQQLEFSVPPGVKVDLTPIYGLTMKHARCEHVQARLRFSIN

Cytochrome P450 3A4 = Cytochrome P450 3A4 (Homo sapiens, UniProt P08684);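 note: CYP3A4 tested as one member of a cytochrome P450 panel screen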
Cytochrome P450 2C9 = Cytochrome P450 2C9 (Homo sapiens, UniProt P11712)
Paired box protein Pax-8 = Paired box protein Pax-8 (Homo sapiens, UniProt Q06710); experiment: PAX8 transcriptional activity inhibition in RMG-I – RMG-I cells, luciferase, cherry-pick, dose response (AID 687027); assay type: functional, cell-based;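 note: luciferase reporter driven by Pax8 target thyroperoxidase promoter measured by SteadyGlo luminescence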
H4 = experiment: Luminescence Cell-Based Dose Response HTS to Identify Activators of 5'UTR Stem-Loop Driven Prion Protein mRNA Translation in H4 Neuroglioblastoma Cells. [Related pubchem assays: 1829 (Project Summary), 1814 (Primary HTS)]; assay type: functional; details: Homo sapiens
[7] = Trypanosoma cruzi growth suppression in host cells – NIH3T3 host cells, beta-gal luminescence, confirmation (AID 2044); assay type: functional, cell-based;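 note: intracellular parasites grown in NIH/3T3 mouse fibroblasts as host cells; luminescent beta-galactosidase reporter signal from transgenic T. cruzi replicating inside host cells; inhibitors lower the luminescence signal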
[8] = NIH3T3 cell viability loss – ATP luminescence, mouse fibroblasts, counter-screen, dose response (AID 2010); assay type: functional, cell-based; details: NIH3T3;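 note: cells exposed to compound for about 90 hours before reading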

Paired box protein Pax-8, sequence (Q06710 whole entry): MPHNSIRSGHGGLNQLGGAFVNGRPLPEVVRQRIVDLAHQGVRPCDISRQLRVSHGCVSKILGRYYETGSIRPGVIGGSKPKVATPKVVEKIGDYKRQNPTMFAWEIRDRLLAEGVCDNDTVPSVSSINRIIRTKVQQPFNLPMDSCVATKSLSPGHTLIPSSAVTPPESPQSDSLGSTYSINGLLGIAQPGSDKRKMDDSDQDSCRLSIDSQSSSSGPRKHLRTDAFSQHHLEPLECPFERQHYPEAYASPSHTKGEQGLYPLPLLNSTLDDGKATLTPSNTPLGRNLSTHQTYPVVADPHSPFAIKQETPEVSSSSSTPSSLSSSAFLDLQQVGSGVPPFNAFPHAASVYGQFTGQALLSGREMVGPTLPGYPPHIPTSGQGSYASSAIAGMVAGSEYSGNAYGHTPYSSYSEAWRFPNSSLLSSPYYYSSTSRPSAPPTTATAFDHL
Cytochrome P450 3A4, sequence (P08684 whole entry): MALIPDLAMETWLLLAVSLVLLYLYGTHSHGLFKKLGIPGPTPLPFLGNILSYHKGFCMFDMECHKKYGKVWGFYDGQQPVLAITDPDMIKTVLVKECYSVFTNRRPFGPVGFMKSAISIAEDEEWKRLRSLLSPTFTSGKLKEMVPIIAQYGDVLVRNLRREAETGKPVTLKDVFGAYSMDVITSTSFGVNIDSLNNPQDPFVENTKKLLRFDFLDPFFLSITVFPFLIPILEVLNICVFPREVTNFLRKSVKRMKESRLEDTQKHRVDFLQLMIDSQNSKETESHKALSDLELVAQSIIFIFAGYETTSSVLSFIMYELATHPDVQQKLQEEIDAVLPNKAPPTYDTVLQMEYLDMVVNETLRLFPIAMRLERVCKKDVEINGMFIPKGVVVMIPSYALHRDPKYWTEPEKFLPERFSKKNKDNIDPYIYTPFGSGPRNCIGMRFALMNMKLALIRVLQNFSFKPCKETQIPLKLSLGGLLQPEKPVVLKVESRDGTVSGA
Cytochrome P450 2C9, sequence (P11712 whole entry): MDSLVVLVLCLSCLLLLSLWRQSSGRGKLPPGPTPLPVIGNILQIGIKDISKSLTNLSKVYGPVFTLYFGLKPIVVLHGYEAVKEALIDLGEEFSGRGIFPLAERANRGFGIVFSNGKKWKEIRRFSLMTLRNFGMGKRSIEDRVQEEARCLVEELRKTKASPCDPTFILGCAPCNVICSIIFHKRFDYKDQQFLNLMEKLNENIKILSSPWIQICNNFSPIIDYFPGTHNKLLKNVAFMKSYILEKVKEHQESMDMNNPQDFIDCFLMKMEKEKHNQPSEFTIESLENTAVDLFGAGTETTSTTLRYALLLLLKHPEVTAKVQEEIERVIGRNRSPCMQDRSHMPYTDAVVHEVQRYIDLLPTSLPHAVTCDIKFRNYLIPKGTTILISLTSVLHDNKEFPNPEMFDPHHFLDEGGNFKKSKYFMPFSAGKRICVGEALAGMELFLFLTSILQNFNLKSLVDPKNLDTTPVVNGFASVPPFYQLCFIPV

Cc1nc(NC(C)c2ccccc2)sc1C(=O)Nc1ccccc1 (stereo not given)
EC50 [1]: > 195 µM (not active)

Cc1ccc(CSCC(=O)N(C)CC(=O)Nc2ccc(C)cc2)cc1
EC50 [1]: > 195 µM (not active)

Cc1ccc(NC(=O)C2CCCN2C(=O)c2cccs2)cc1C (stereo not given)
IC50 [2]: > 47.1 µM (inactive) | EC50 [3]: > 53 µM (inactive)

Cc1nc2ccc(S(=O)(=O)NC(C(=O)NCc3cccs3)C(C)C)cc2s1 (stereo not given)
EC50 [1]: > 195 µM (not active)

CCOC(=O)N1CCc2c(sc(NC(=O)CN(CC)CC)c2C#N)C1
IC50 [4]: > 20 µM (inactive)

Cc1cc([N+](=O)[O-])ccc1NCc1ccccc1[N+](=O)[O-]
IC50 [2]: > 47.1 µM (inactive) | EC50 [3]: > 53 µM (inactive)

O=C(CCC(=O)c1ccc(Br)cc1)Nc1cccnc1
EC50 [1]: > 195 µM (not active)

CCC(c1nnc(SCC(=O)Nc2c(F)cccc2F)n1Cc1ccccc1)N(C)C (stereo not given)
IC50 [2]: > 47.1 µM (inactive) | EC50 [3]: > 53 µM (inactive)

COc1ccc(C(=O)c2c[nH]cc2-c2ccccc2)cc1
EC50 [1]: > 195 µM (not active)

Cc1c(C)n(Cc2ccccc2)c2ncnc(N)c12
IC50 [4]: > 20 µM (inactive)

CCC(CC)c1nc(C#N)c(NCc2ccccc2)o1
EC50 [1]: 107 µM (active)

CCCSc1nsc(NC(=O)C(c2ccccc2)c2ccccc2)n1
EC50 (Streptokinase A): 11.3 µM (active) | EC50 [5]: 2.73 µM (active) | AC50 [6]: 2.87 µM (active) | EC50 (Streptococcus): 6.12 µM (active)

CCCC[C@@H]1C[C@H]1C(NC(=O)c1ccccc1)c1ccc(-c2ccccc2)cc1 (stereo not given in full)
AC50 (Cytochrome P450 1A2): 0.501 µM (inconclusive) | AC50 (Cytochrome P450 3A4): 7.94 µM (inconclusive) | AC50 (Cytochrome P450 2C9): 2 µM (inconclusive)

COc1ccc(N2CCN(S(=O)(=O)c3cc4c(cc3C)N(C(C)=O)CCO4)CC2)cc1
EC50 [1]: > 195 µM (not active)

COc1cc(C=O)ccc1Oc1cnccn1
IC50 [2]: > 47.1 µM (inactive) | EC50 [3]: > 53 µM (inactive)

O=C1CC(Nc2ccccc2)=NN1c1ccccc1
AC50 (Cytochrome P450 3A4): 28.2 µM (inconclusive) | AC50 [6]: 3.96 µM (active)

CCCCNC(=O)C(Sc1ccccc1)c1ccccc1 (stereo not given)
AC50 (Paired box protein Pax-8): 65.4 µM (active)

COc1ccc(CNc2cc([N+](=O)[O-])ccc2OC)cc1
IC50 [2]: 11 µM (active) | EC50 [3]: > 53 µM (inactive)

CN(C(=O)CCNC(=O)Cn1cnc2ccccc2c1=O)c1ccccc1F
EC50 [1]: > 195 µM (not active)

Cc1ccc(NC(=S)NNC(=O)c2nnn(-c3ccccc3)c2C)cc1
IC50 [4]: > 20 µM (inactive)

COc1ccc(Br)cc1CNC(=O)CCN1C(=O)COc2ccccc21
EC50 [1]: > 195 µM (not active)

NN=C(S)Nc1ccccc1Cl
EC50 [1]: > 195 µM (not active)

Cc1nc2cnc(Nc3ccccc3)nc2n(CCc2ccccc2)c1=O
AC50 (Cytochrome P450 1A2): 2.51 µM (inconclusive) | AC50 (Cytochrome P450 3A4): 10 µM (inconclusive)

COc1cc(NC(S)=NCc2ccco2)cc(OC)c1
IC50 [2]: > 47.1 µM (inactive) | EC50 [3]: > 53 µM (inactive)

Cc1ccc(CNC(=O)/C=C/c2cccs2)cc1
EC50 (H4): 1.28 µM (active)

COC(=O)c1cc(S(=O)(=O)NCc2ccc(F)cc2)cn1C
EC50 [1]: > 195 µM (not active)

CC1CCc2[nH]c3ccc(C(=O)N(C)CC(=O)Nc4cccc(F)c4)cc3c2C1 (stereo not given)
IC50 [2]: > 47.1 µM (inactive) | EC50 [3]: > 53 µM (inactive)

CCCNCC1C(Oc2ccc(Cl)cc2Cl)C(=O)N1c1cccc(C)c1C (stereo not given)
EC50 [7]: 3.52 µM (active) | AC50 [6]: 5.78 µM (active) | EC50 [8]: > 60 µM (not active)

O=C(Nc1cccc(O)c1)c1cc(-c2ccccc2Cl)on1
EC50 [1]: > 195 µM (not active)

COc1ccc(NC(=O)c2[nH]cnc2C(=O)NCc2ccccc2)cc1
IC50 [4]: > 20 µM (inactive)

Cc1nn(Cc2ccc(Cl)cc2)c(C)c1NC(=O)c1cc(-c2ccc3c(c2)OCO3)on1
EC50 [7]: 1.99 µM (active) | AC50 [6]: 0.486 µM (active) | EC50 [8]: 3.87 µM (active)

COc1ccccc1C(=O)Nc1nnc(SCC(=O)NCC2CCCO2)s1 (stereo not given)
EC50 (Streptokinase A): > 150 µM (not active) | EC50 (H4): > 120 µM (not active) | EC50 [5]: > 150 µM (not active) | EC50 (Streptococcus): > 150 µM (not active)

COc1ccc(/C=C/C(=O)N(C)CC(=O)Nc2cccc(F)c2)cc1S(=O)(=O)N1CCCCC1
IC50 [2]: > 47.1 µM (inactive) | EC50 [3]: > 53 µM (inactive)

CSCCC(NC(=O)c1ccccc1Br)C(=O)NNC(=O)c1csc(N2CCOCC2)n1 (stereo not given)
IC50 [4]: > 20 µM (inactive)

COc1cc(OC)cc(-c2sc3ccc(OC)cc3c2-c2ccc(O)cc2)c1
AC50 [6]: 2.46 µM (active)

CCCCCC(=O)N1CC2(CC(c3cccc(NC(=O)CC)c3)=NO2)C[C@H]1C(N)=O (stereo not given in full)
IC50 [2]: > 47.1 µM (inactive) | EC50 [3]: > 53 µM (inactive)

Cc1cn(CC(=O)N2CCN(c3ccccn3)CC2)c(=O)[nH]c1=O
IC50 [2]: > 47.1 µM (inactive) | EC50 [3]: > 53 µM (inactive)

O=C(N/N=C/c1ccc(O)cc1)c1[nH]c2ccc(Br)cc2c1-c1ccccc1
AC50 (Paired box protein Pax-8): 4.43 µM (active) | EC50 [1]: 11.4 µM (active)

COc1cccc(-c2ccc3c(c2)[C@@H]2[C@@H](CCN2S(=O)(=O)c2ccccc2C)[C@H](CO)N3C)c1
AC50 (Paired box protein Pax-8): 10.4 µM (active)

CCCCCCCCCCS(=O)(=O)N/N=C/c1ccc([N+](=O)[O-])cc1
AC50 [6]: 8.29 µM (active)
